Data from BindingDB's records for patent US20240317732 (Department of Health And Human Service, 2024).

target: Proteasomal ubiquitin receptor ADRM1 (Homo sapiens, UniProt Q16186); test: Isothermal Titration Calorimetry Experiments
Procedure: ITC experiments were performed at 25° C. on a MicroCal iTC200 system (Malvern, PA, USA). hRpn13 Pru, XL5, XL5 derivative, or RA190 were prepared in buffer C. One aliquot of 0.5 μL followed by 17 or 18 aliquots of 2.1 μL of 200 μM hRpn13 Pru was injected at 750 r.p.m. into a calorimeter cell (volume […]) that contained 20 μM XL5, XL5 derivative, or RA190. Blank experiments were performed by replacing XL5, XL5 derivative, or RA190 with buffer in the cell and the resulting data subtracted from the experimental data during analyses. The integrated interaction heat values were normalized as a function of protein concentration and the data were fit with MicroCal Origin 7.0-based software implementing the One Set of Sites model to yield binding affinity Ka (1/Kd), stoichiometry, and other thermodynamic parameters.

Sequence of Proteasomal ubiquitin receptor ADRM1 (Q16186 whole entry): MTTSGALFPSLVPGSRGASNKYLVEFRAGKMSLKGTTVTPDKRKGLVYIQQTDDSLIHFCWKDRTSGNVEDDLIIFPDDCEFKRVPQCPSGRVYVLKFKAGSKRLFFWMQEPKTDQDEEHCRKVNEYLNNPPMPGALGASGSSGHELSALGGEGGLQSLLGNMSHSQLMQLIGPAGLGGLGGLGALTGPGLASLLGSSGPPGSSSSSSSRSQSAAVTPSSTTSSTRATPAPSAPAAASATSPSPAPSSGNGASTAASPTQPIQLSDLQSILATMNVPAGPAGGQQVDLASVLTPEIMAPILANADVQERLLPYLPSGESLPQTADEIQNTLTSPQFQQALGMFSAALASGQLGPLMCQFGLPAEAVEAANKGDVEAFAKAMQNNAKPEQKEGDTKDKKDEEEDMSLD

| SMILES | Kd [µM] |
| --- | --- |
| Cc1ccc(C(=O)Nc2cccc(C=C(C#N)C(=O)Nc3ccccc3C(=O)O)c2)nc1O [US20240317732, Compound XL27] | 3.94 |
| N#C/C(=C\c1cccc(NC(=O)c2ccccc2Cl)c1)C(=O)Nc1ccccc1C(=O)O [US20240317732, Compound XL23] | 3.88 |
| N#CC(=Cc1cccc(NC(=O)c2ccc(NCC(=O)O)cc2)c1)C(=O)Nc1ccccc1C(=O)O [US20240317732, Compound XL25] | 4.12 |

Other lines, results leading:

| Kd [µM] | SMILES |
| --- | --- |
| 7.81 | CNc1ccc(NC(=O)/C(C#N)=C/c2cccc(NC(=O)c3ccc(C)cc3)c2)c(C(=O)O)c1 [US20240317732, Compound XL29] |
| 3.82 | COc1ccc(NC(=O)/C(C#N)=C/c2cccc(NC(=O)c3ccc(C)cc3)c2)c(C(=O)O)c1 [US20240317732, Compound XL28] |
| 12.4 | Cc1ccc(C(=O)Nc2cccc(C=C(C#N)C(=O)Nc3cccc(C(F)(F)F)c3C(=O)O)c2)cc1 [US20240317732, Compound XL30] |
